Data on 24 molecules can be found in the OPERA property sets (Mansouri et al. 2018).

Structures are written as SMILES.

One may read the logP as the decadic logarithm of the partition coefficient of the neutral form, usually between octanol and water. Read a high logP as a more lipophilic compound. `N#CN=[N+]([O-])c1cnccn1` came in with a logP of 0.1.

Regarding `N#C/N=[N+](\[O-])c1ccc([N+](=O)[O-])cc1`, the logP was found to be 1.51.

Molecule `N#CN=[N+]([O-])c1cccc2ccccc12` yielded a logP of 3.17.

`Cc1cccc([N+]([O-])=NC#N)c1` returned a log partition coefficient (logP) of 2.49.

`COc1ccc(/[N+]([O-])=N/C#N)cc1` yielded a logP of 2.15.

In turn, `N#C/N=[N+](\[O-])c1cccc(Cl)c1` had a logP of 2.4.

`Cc1ccc([N+]([O-])=NC#N)cc1`: the logP came out at 2.39.

As for `N#CN=[N+]([O-])c1ccc(Cl)cc1`, the logP stood at 2.33.

With `N#CN=[N+]([O-])c1ccc(C#N)cc1`, the logP was determined as 1.18.

The molecule `N#CN=[N+]([O-])c1cccc(C(F)(F)F)c1` came in with a logP of 2.52.

Molecule `CN(C)c1ccc(/[N+]([O-])=N/C#N)cc1` had a logP of 2.3.

Molecule `N#CN=[N+]([O-])c1ccnc2ccccc12` displayed a logP of 2.07.

Molecule `COc1cccc(/[N+]([O-])=N/C#N)c1` had a logP of 2.24.

For the molecule `N#C/N=[N+](\[O-])c1ccccn1`, the logP came to 0.53.

As to `N#C/N=[N+](\[O-])c1cccc([N+](=O)[O-])c1`, the logP stood at 1.45.

For the molecule `CCNc1nonc1N`, the logP came out at 0.51.

For `N#CN=[N+]([O-])c1ncccn1`, the logP is -0.13.

For the molecule `N#C/N=[N+](\[O-])c1ccc(Br)cc1`, the logP turned out to be 2.5.

Molecule `N#CN=[N+]([O-])c1cccc(C#N)c1` had a logP of 1.15.

`N#C/N=[N+](\[O-])c1cccc(Br)c1` had a logP of 2.56.

The molecule `N#CN=[N+]([O-])c1ccc(F)cc1` displayed a logP of 1.8.

In the case of `N#CN=[N+]([O-])c1ccc(C(F)(F)F)cc1`, the logP was 2.47.

Molecule `N#CN=[N+]([O-])c1ccccc1` had a logP of 1.87.

In turn, `N#C/N=[N+](\[O-])c1cccc(F)c1` gave a logP of 1.85.
